Source: patent US5834484A (Board of Supervisors of Louisiana State University and …, priority 1998, dated 1998)
Where two headings read alike, the source gives them in different places.

Tests used:
[1] = molecular target: T1, dopamine transporter (DAT), cocaine binding site (Rattus norvegicus, UniProt P23977); test: Displacement of [^3 H]WIN 35,428 binding (rat striatal / caudate-putamen membranes); conditions: for Ki: mean ± SEM, three experiments in triplicate, unlabeled ligand, rat caudate-putamen; for binding affinity compared with cocaine and WIN 35,065-2: high affinity Ki values/components of cocaine and WIN 35,065-2
T1 construct: Rat striatal membranes are prepared from frozen tissue; from tissue; host or cells: rat caudate-putamen (striatal) membranes from frozen tissue
T1 sequence (P23977 whole entry): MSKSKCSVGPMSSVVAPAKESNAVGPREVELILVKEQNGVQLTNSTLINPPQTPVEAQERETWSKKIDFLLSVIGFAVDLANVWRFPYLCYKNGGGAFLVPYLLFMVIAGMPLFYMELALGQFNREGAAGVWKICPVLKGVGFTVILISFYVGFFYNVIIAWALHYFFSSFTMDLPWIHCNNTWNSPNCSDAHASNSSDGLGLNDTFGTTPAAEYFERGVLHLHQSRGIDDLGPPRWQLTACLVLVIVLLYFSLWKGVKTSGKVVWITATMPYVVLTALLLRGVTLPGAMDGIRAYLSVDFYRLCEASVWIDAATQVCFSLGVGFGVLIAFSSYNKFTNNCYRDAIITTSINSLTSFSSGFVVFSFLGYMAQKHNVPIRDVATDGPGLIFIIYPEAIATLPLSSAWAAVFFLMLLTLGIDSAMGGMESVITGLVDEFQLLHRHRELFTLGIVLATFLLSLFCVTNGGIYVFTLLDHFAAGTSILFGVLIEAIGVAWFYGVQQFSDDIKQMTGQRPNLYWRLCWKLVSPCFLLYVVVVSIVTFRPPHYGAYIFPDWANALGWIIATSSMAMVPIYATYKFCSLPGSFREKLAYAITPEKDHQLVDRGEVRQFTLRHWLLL

[2] = molecular target: T1, dopamine transporter (DAT), cocaine binding site; conditions: two-site model, taken from Izenwasser et al. 1994, substantially identical conditions, cited from earlier work
DAT = conditions: in words; cited from earlier work

In the case of COC(=O)C[C@@H]1[C@@H](Cc2ccccc2)C[C@@H]2[C@@H](C)C[C@H]1N2C (relative stereo) [Compound 19b], the “potency relative to corresponding 6α-isomer 17b” value ([1]; 19b vs 17b) is reported as “about twice as potent”, the “binding affinity relative to unsubstituted derivative 17a” value ([1]; in words) is reported as “comparable to that of the unsubstituted derivative 17a” and the “potency (binding affinity) relative to Compound 3, in words” value ([1]; vs prior art cocaine analog 3) is reported as “nearly three orders of magnitude more potent”.
In the case of COC(=O)[C@H]1[C@@H](c2ccccc2)C[C@@H]2CC[C@H]1N2C [WIN 35,065-2], the Ki ([2]; read-out: Ki, high affinity, inhibition of [^3 H]WIN 35,428 binding, high affinity) is given as 33 ± 17 nM and the Ki ([2]; read-out: Ki, low affinity, inhibition of [^3 H]WIN 35,428 binding, low affinity) is given as 314 ± 222 nM.
For COC(=O)[C@H]1[C@H]2[C@H](OC)C[C@@H](C[C@@H]1OC(=O)c1ccccc1)N2C (relative stereo) [Compound 4, 7β-methoxypseudococaine], the “binding affinity to DAT (literature)” value (DAT) is given as “relatively low”.
For CC[C@@H]1C[C@@H]2[C@H](CC(=O)OC)[C@@H](Cc3ccccc3)C[C@H]1N2C (relative stereo) [Compound 17c], the “potency (binding affinity) relative to Compound 3, fold” value ([1]; vs prior art cocaine analog 3) was “about 100 times”.
In the case of COC(=O)[C@@H]1[C@@H](OC(=O)c2ccccc2)C[C@@H]2[C@@H](OC)C[C@H]1N2C (relative stereo) [Compound 3, 6β-methoxypseudococaine], the “binding affinity to DAT (literature)” value (DAT) is given as “relatively low”.
In the case of COC(=O)C[C@@H]1[C@@H](Cc2ccccc2)C[C@@H]2CC[C@H]1N2C (relative stereo) [Compound 17a], the “potency relative to the binding affinities of cocaine, WIN 35,065-2 and 16a (unsubstituted 2α-isomer)” value ([1]; in words) is reported as “significantly less potent”, the Ki [1] is reported as 108 ± 14 nM and the “potency (binding affinity) relative to Compound 3, in words” value ([1]; vs prior art cocaine analog 3) is reported as “nearly three orders of magnitude more potent”.
In the case of COC(=O)C[C@H]1[C@@H](Cc2ccccc2)C[C@@H]2[C@@H](C)C[C@H]1N2C (relative stereo) [Compound 18b], the “potency relative to corresponding 6α-methyl analog 16b” value ([1]; 18b vs 16b) is reported as “about fourfold more potent”, the “binding affinity relative to unsubstituted analog 16a” value ([1]; in words) is reported as “only a slightly lower binding affinity than that of the unsubstituted analog 16a” and the “binding affinity compared with cocaine and WIN 35,065-2” value ([1]; in words) is reported as “within a factor of two of the high affinity binding components of cocaine and WIN 35,065-2”.
With COC(=O)C[C@H]1[C@@H](Cc2ccccc2)C[C@@H]2CC[C@H]1N2C (relative stereo) [Compound 16a] the “binding affinity compared with cocaine and WIN 35,065-2” value ([1]; in words) was “not statistically different from the binding affinities of cocaine and WIN 35,065-2” and the Ki [1] was 91 ± 10 nM.
For CCC[C@H]1C[C@@H]2[C@H](CC(=O)OC)[C@@H](Cc3ccccc3)C[C@H]1N2C (relative stereo) [Compound 19d], the “potency (binding affinity) relative to Compound 3, in words” value ([1]; vs prior art cocaine analog 3) was “nearly three orders of magnitude more potent”.
In the case of COC(=O)C[C@@H]1[C@@H](Cc2ccccc2)C[C@@H]2[C@H](C)C[C@H]1N2C (relative stereo) [Compound 17b], the Ki [1] is reported as 531 ± 12 nM.
